Assays:
[1] = system: colorectal cancer patient-derived xenografts (PDX); experiment: In vivo therapeutic efficacy in CRC patient-derived xenograft (PDX) model; details: CRC PDX mice
Experimental: (§1) The therapeutic efficacy of was evaluated in PDX mice model. When the tumor volume reached about 100 mm3, mice were randomly assigned into four groups (six mice per group) and intravenously administered with DMSO, free PTX, Rev-PTX NPs and LPK-PTX NPs respectively at an equivalent dose of 0.8 mg/kg PTX every 3 days. Total mice body weights and tumor sizes were recorded every 3 days. At the end of the observation, tumors and major organs including heart, liver, spleen, lung, colon and kidney were isolated, […] and subjected to hematoxylin and eosin (H&E) and Ki-67 staining using standard protocols for histopathological analysis.

HCT116 cells = experiment: Cell apoptosis, Annexin V-Alexa Fluor488/PI flow cytometry; assay type: cell-based, human; details: HCT116, PTX concentration 5 μg/ml, 48 h, representative result
Experimental: HCT116 cells were seeded in six-well plates at a density of 1 × 10^4 cells per well and incubated at 37°C until a confluence of 80%. The cells were treated with PTX, Rev-PTX NPs, LPK-PTX NPs at normalized PTX concentration of 5 μg/ml at 37°C for 48 h. Then the cells were trypsinzed, washed, and stained with Annexin V-Alexa Fluor488/PI according to manufacturer’s protocol (Life Technologies, United States). The cell apoptosis was monitored by flow cytometry (BD, CA, United States) and the apoptotic percentage of three independent experiments was analyzed.

[2] = Systemic toxicity in the PDX model (body weight, H&E of major organs); assay type: in vivo; details: PDX mice
Experimental: as §1

Q: With CC(=O)O[C@H]1C(=O)[C@@]2(C)[C@H]([C@H](OC(=O)c3ccccc3)[C@]3(O)C[C@H](OC(=O)[C@H](O)[C@@H](NC(=O)c4ccccc4)c4ccccc4)C(C)=C1C3(C)C)[C@]1(OC(C)=O)CO[C@@H]1C[C@@H]2O [PTX, Paclitaxel] as the compound, how does the “Ki-67 staining of tumor tissue” value [1] read?
A: numerous Ki-67-positive cells

Q: What about the “early plus late apoptosis (Q3 + Q2)” value (HCT116 cells) of the same compound?
A: 44.8%

Q: What about the “colon histology (HE)” value [2] of the same compound?
A: severe crypt destruction

Q: And the “HE-stained sections of colon, lung and liver” value ([2]; 0.8 mg/kg PTX equivalent i.v. every 3 days)?
A: serious damages
